From patent US6545148B2, “Process for preparing certain substituted caprolactams” (Novartis AG, priority 2001, dated 2003) come the findings set out here.

Structures are written as SMILES.

The data set is described as follows: H2O solubility of the chromatographed white solid. The format is physicochemical. As to conditions: white solid after chromatography (2% methanol-CH2Cl2), before preparative hplc purification. The method, then: To a stirred solution of trifluoroacetic acid (10 ml), tetrahydrofuran (10 ml) and water (5 ml) at 0° C. is added, in one portion, 3.8 g (7.1 mmol) of the compound prepared in a) above. The reaction is stirred at 0° C. for 30 minutes, concentrated via rotary evaporation (bath temperature <20° C), mixed with saturated NH4HCO3 (5 mL) and stirred for 15 minutes. […] This material is further purified using preparative hplc (reverse phase eluted with 90% CH3CN-water) to give 2.9 g (82.4%) of the title compound as a white solid, m.p. 79-80° C.

`CO[C@@H](C(=O)N[C@H]1CC[C@@H](OC(=O)C2CCCCC2)CNC1=O)[C@H](O)[C@@H](O)[C@H](O)/C=C/C(C)(C)C` [Example 3, (2R, 3R, 4S, 5R, 6E)-3,4,5-trihydroxy-2-methoxy-8,8-dimethyl-N-[(3S,6R) -hexahydro-2-oxo-6-(cyclohexylcorbonyl)oxy-2H-azepin-3-3-yl]non-6-enamide] yielded an H2O solubility of 3700 µg/mL.
